Data from PubChem BioAssay AID330 (DTP/NCI, 2004).
“And” between values parts separate entries of the source, which are not always exact repeats. Identical values can stand only once. Inconclusive results and toxic doses are left out.

Tested on: P388 leukemia ip, CD2F1 mice, survival T/C
Assay: NCI In Vivo Anticancer Drug Screen. Data for tumor model P388 Leukemia (intraperitoneal) in CD2F1 (CDF1) mice
Details: endpoint: median survival time, higher = longer survival
Summary of the method: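 Mice carrying the transplanted tumor received test compound or vehicle. Survival was recorded in each group, and the value is the treated-group measurement divided by that of the vehicle-treated control group.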

[1] = dose: 50.0 mg/kg/injection, schedule: Q01DX005 (ip), vehicle: Klucel (hydroxypropylcellulose) (HPC)
[2] = dose: 100.0 mg/kg/injection, schedule: Q01DX005 (ip), vehicle: Klucel (hydroxypropylcellulose) (HPC)
[3] = dose: 200.0 mg/kg/injection, schedule: Q01DX005 (ip), vehicle: Klucel (hydroxypropylcellulose) (HPC)
[4] = dose: 50.0 mg/kg/injection, schedule: Q01DX005 (ip), vehicle: saline with Tween-80
[5] = dose: 100.0 mg/kg/injection, schedule: Q01DX005 (ip), vehicle: saline with Tween-80
[6] = dose: 200.0 mg/kg/injection, schedule: Q01DX005 (ip), vehicle: saline with Tween-80
[7] = dose: 60.0 mg/kg/injection, schedule: Q01DX005 (ip), vehicle: saline with Tween-80
[8] = dose: 120.0 mg/kg/injection, schedule: Q01DX005 (ip), vehicle: saline with Tween-80

## Cn1c2c(c3nc(N)nc(N)c3c1=O)CCc1ccccc1-2
dose: 25.0 mg/kg/injection, schedule: Q01DX005 (ip), vehicle: distilled water + alcohol
  T/C: 102 % of control
dose: 50.0 mg/kg/injection, schedule: Q01DX005 (ip), vehicle: distilled water + alcohol
  T/C: 96 % of control
dose: 100.0 mg/kg/injection, schedule: Q01DX005 (ip), vehicle: distilled water + alcohol
  T/C: 94 % of control
dose: 200.0 mg/kg/injection, schedule: Q01DX005 (ip), vehicle: distilled water + alcohol
  T/C: 103 % of control

## COc1cc(OC)c(NC(=O)CC2SC(N)=NC2=O)cc1Cl (centres undefined)
dose: 50.0 mg/kg/injection, schedule: Q01DX009 (ip), vehicle: Klucel (hydroxypropylcellulose) (HPC)
  T/C: 97 % of control
dose: 100.0 mg/kg/injection, schedule: Q01DX009 (ip), vehicle: Klucel (hydroxypropylcellulose) (HPC)
  T/C: 97 % of control

## COC(=O)c1nc(=S)[nH]c(C(=O)OC)c1C(=O)/C=C/c1ccccc1
dose: 60.0 mg/kg/injection, schedule: Q01DX005 (ip), vehicle: saline + Tween-80 + alcohol
  T/C: 104 % of control
dose: 120.0 mg/kg/injection, schedule: Q01DX005 (ip), vehicle: saline + Tween-80 + alcohol
  T/C: 100 % of control

## O=C(Nc1ccc(N(CCCl)CCCl)cc1)Oc1ccc(C(=O)O)cc1
dose: 6.25 mg/kg/injection, schedule: Q01DX009 (ip), vehicle: saline with Tween-80
  T/C: 179 % of control and 193 % of control
dose: 12.5 mg/kg/injection, schedule: Q01DX009 (ip), vehicle: saline with Tween-80
  T/C: 185 % of control and 189 % of control
dose: 25.0 mg/kg/injection, schedule: Q01DX009 (ip), vehicle: saline with Tween-80
  T/C: 106 % of control

## [NH-][n+]1c2c(nc3ccccc31)-c1cccc3cccc-2c13
[1]
  T/C: 103 % of control
dose: 100.0 mg/kg/injection, schedule: Q01DX001 (ip), vehicle: Klucel (hydroxypropylcellulose) (HPC)
  T/C: 97 % of control
[2]
  T/C: 112 % of control
dose: 200.0 mg/kg/injection, schedule: Q01DX001 (ip), vehicle: Klucel (hydroxypropylcellulose) (HPC)
  T/C: 100 % of control
[3]
  T/C: 105 % of control
dose: 400.0 mg/kg/injection, schedule: Q01DX001 (ip), vehicle: Klucel (hydroxypropylcellulose) (HPC)
  T/C: 102 % of control

## CCOC(=O)CC(=O)CC(C(=O)OCC)C(=O)OCC
[4]
  T/C: 98 % of control
[5]
  T/C: 104 % of control
[6]
  T/C: 105 % of control

## CCOC(=O)Nc1ccc(S(=O)(=O)c2ccc(Nc3ccnc4cc(Cl)ccc34)cc2)cc1
[1]
  T/C: 94 % of control
[2]
  T/C: 98 % of control
[3]
  T/C: 91 % of control

## CCNc1cc(N)[n+](CC)c2n[nH]c(/N=C/c3cc(Cl)cc(Cl)c3O)c12
[4]
  T/C: 97 % of control
[5]
  T/C: 87 % of control
[6]
  T/C: 93 % of control

## C=C1C(=O)OC2/C=C(\C)CC/C=C(/C(=O)OC)C(OC(=O)C(C)C(C)O)C(OC(=O)C(C)(O)C(C)O)C12 (centres undefined)
dose: 6.0 mg/kg/injection, schedule: Q01DX009 (ip), vehicle: Klucel (hydroxypropylcellulose) (HPC)
  T/C: 122 % of control
dose: 8.0 mg/kg/injection, schedule: Q01DX009 (ip), vehicle: Klucel (hydroxypropylcellulose) (HPC)
  T/C: 122 % of control
dose: 12.0 mg/kg/injection, schedule: Q01DX009 (ip), vehicle: Klucel (hydroxypropylcellulose) (HPC)
  T/C: 105 % of control

## COC(=O)C(CSC1CCCCC1=O)NC(C)=O (centres undefined)
dose: 25.0 mg/kg/injection, schedule: Q01DX005 (ip), vehicle: Klucel (hydroxypropylcellulose) (HPC)
  T/C: 93 % of control
[1]
  T/C: 95 % of control
[2]
  T/C: 101 % of control

## CCCCOP(=O)(N1CC1(C)C)N1CC1(C)C (centres undefined)
dose: 2.0 mg/kg/injection, schedule: Q01DX009 (ip), vehicle: saline
  T/C: 104 % of control and 115 % of control and 96 % of control
dose: 4.0 mg/kg/injection, schedule: Q01DX009 (ip), vehicle: saline
  T/C: 115 % of control and 117 % of control and 98 % of control
dose: 8.0 mg/kg/injection, schedule: Q01DX009 (ip), vehicle: saline
  T/C: 108 % of control and 111 % of control
dose: 10.0 mg/kg/injection, schedule: Q01DX001 (ip), vehicle: saline
  T/C: 105 % of control and 111 % of control and 115 % of control
dose: 20.0 mg/kg/injection, schedule: Q01DX001 (ip), vehicle: saline
  T/C: 101 % of control and 102 % of control
dose: 40.0 mg/kg/injection, schedule: Q01DX001 (ip), vehicle: saline
  T/C: 105 % of control and 117 % of control

## Cc1noc(NS(=O)(=O)c2ccc(N=Nc3cc(N=Nc4ccc(S(=O)(=O)Nc5onc(C)c5C)cc4)c4c(NC(=O)C(Cl)Cl)cccc4c3O)cc2)c1C (tested in a mixture with another compound)
[4]
  T/C: 117 % of control and 118 % of control

## CN(C)c1nc(N/N=C/c2ccc([N+](=O)[O-])cc2)nc(N(C)C)n1
dose: 100.0 mg/kg/injection, schedule: Q04DX003 (ip), vehicle: saline with Tween-80
  T/C: 98 % of control
dose: 200.0 mg/kg/injection, schedule: Q04DX003 (ip), vehicle: saline with Tween-80
  T/C: 105 % of control
dose: 400.0 mg/kg/injection, schedule: Q04DX003 (ip), vehicle: saline with Tween-80
  T/C: 93 % of control

## O=[N+]([O-])c1ccc(C2=C[P+](c3ccccc3)(c3ccccc3)c3ccccc3O2)cc1
dose: 0.78 mg/kg/injection, schedule: Q01DX005 (ip), vehicle: Klucel (hydroxypropylcellulose) (HPC)
  T/C: 106 % of control
dose: 1.56 mg/kg/injection, schedule: Q01DX005 (ip), vehicle: Klucel (hydroxypropylcellulose) (HPC)
  T/C: 115 % of control
dose: 3.12 mg/kg/injection, schedule: Q01DX005 (ip), vehicle: Klucel (hydroxypropylcellulose) (HPC)
  T/C: 117 % of control
dose: 6.25 mg/kg/injection, schedule: Q01DX005 (ip), vehicle: Klucel (hydroxypropylcellulose) (HPC)
  T/C: 112 % of control

## COc1ccc(CC(=O)O)cc1OC (tested in a mixture with another compound)
dose: 100.0 mg/kg/injection, schedule: Q01DX009 (ip), vehicle: saline sonified
  T/C: 100 % of control
dose: 200.0 mg/kg/injection, schedule: Q01DX009 (ip), vehicle: saline sonified
  T/C: 100 % of control
dose: 400.0 mg/kg/injection, schedule: Q01DX009 (ip), vehicle: saline sonified
  T/C: 100 % of control

## COc1cc(Br)c(CC(NC=O)c2ccc(OC)c(OC)c2OC)cc1OC (centres undefined)
[7]
  T/C: 107 % of control
[8]
  T/C: 100 % of control
dose: 240.0 mg/kg/injection, schedule: Q01DX005 (ip), vehicle: saline with Tween-80
  T/C: 100 % of control

## COc1ccc(Cl)c2c1[nH]c1nc3nc4cc(Cl)ccc4n3nc12
dose: 12.5 mg/kg/injection, schedule: Q01DX005 (ip), vehicle: saline with Tween-80
  T/C: 90 % of control
dose: 25.0 mg/kg/injection, schedule: Q01DX005 (ip), vehicle: saline with Tween-80
  T/C: 94 % of control
[4]
  T/C: 101 % of control and 105 % of control
[5]
  T/C: 105 % of control
[6]
  T/C: 111 % of control

## COC12CCCC3(OCCO3)C1C(Cl)C2Cl (centres undefined)
[7]
  T/C: 98 % of control
[8]
  T/C: 88 % of control

## Cc1c(-c2cnccn2)ssc1=S
[4]
  T/C: 103 % of control
[5]
  T/C: 99 % of control
[6]
  T/C: 103 % of control

## Nc1ccc2snc3c2c1C(=O)c1ccccc1-3
[1]
  T/C: 99 % of control
[2]
  T/C: 91 % of control
[3]
  T/C: 100 % of control

## CCCCCCCS(=O)(=O)OCCCCOS(=O)(=O)CCCCCCC
dose: 45.0 mg/kg/injection, schedule: Q01DX005 (ip), vehicle: acetone
  T/C: 99 % of control
dose: 90.0 mg/kg/injection, schedule: Q01DX005 (ip), vehicle: acetone
  T/C: 100 % of control
dose: 180.0 mg/kg/injection, schedule: Q01DX005 (ip), vehicle: acetone
  T/C: 99 % of control

## CCCCCCN(CCCCCC)c1nsc(Cl)n1
dose: 40.0 mg/kg/injection, schedule: Q01DX009 (ip), vehicle: saline with Tween-80
  T/C: 105 % of control
dose: 80.0 mg/kg/injection, schedule: Q01DX009 (ip), vehicle: saline with Tween-80
  T/C: 108 % of control
dose: 160.0 mg/kg/injection, schedule: Q01DX009 (ip), vehicle: saline with Tween-80
  T/C: 111 % of control

## COc1ccc(C(c2cc3c(cc2O)OCO3)N2CCCC2)cc1 (centres undefined)
dose: 60.0 mg/kg/injection, schedule: Q01DX005 (ip), vehicle: Klucel (hydroxypropylcellulose) (HPC)
  T/C: 100 % of control
dose: 120.0 mg/kg/injection, schedule: Q01DX005 (ip), vehicle: Klucel (hydroxypropylcellulose) (HPC)
  T/C: 100 % of control

## O=C(O)CC(=O)O.[Cu+2].[NH-]C1CCCC2CCC[N-]C12 (centres undefined)
dose: 5.0 mg/kg/injection, schedule: Q04DX002 (ip), vehicle: saline
  T/C: 93 % of control
dose: 10.0 mg/kg/injection, schedule: Q04DX002 (ip), vehicle: saline
  T/C: 108 % of control

## Cc1c2noc1CCCCCCCCCCC2
[1]
  T/C: 104 % of control
[2]
  T/C: 110 % of control
[3]
  T/C: 102 % of control

## CC1CCCC2=C1C(O)c1c(N)cccc1C2O (centres undefined)
[1]
  T/C: 96 % of control
[2]
  T/C: 101 % of control
[3]
  T/C: 94 % of control

## O=C(NCCN(C(=O)C(F)(F)F)c1ccc(F)cc1)C(F)(F)F
dose: 50.0 mg/kg/injection, schedule: Q01DX009 (ip), vehicle: saline with Tween-80
  T/C: 100 % of control
dose: 100.0 mg/kg/injection, schedule: Q01DX009 (ip), vehicle: saline with Tween-80
  T/C: 100 % of control
dose: 200.0 mg/kg/injection, schedule: Q01DX009 (ip), vehicle: saline with Tween-80
  T/C: 101 % of control
